The values that follow come from BindingDB's records for doi:10.1016/j.bmcl.2004.02.025 (Universidade Federal De Minas Gerais, 2004).

Each structure is given as a SMILES string.

The IC50 is the concentration that gives 50% inhibition. The low end stands for greater potency, the high end for weaker potency.

A short description of one test: Inhibitory concentration against glyceraldehyde-3-phosphate dehydrogenase was determined as log 1/IC50.
`CC1(C)C=Cc2c(ccc3ccc(=O)oc23)O1` returned an IC50 of 123 µM.

Regarding `O=c1oc2ccc(/N=C/c3ccco3)cc2cc1-c1ccc2c(c1)OCO2`, the IC50 was determined as 56.2 µM. Compared with the last compound, the IC50 is about 2.2-fold lower.

The compound `CC(=O)Oc1cccc(-c2cc3cc(OC(C)=O)ccc3oc2=O)c1` showed an IC50 of 17 µM. Compared with the last compound, the IC50 is about 3.3-fold lower.

As to `O=c1oc2c(O)cccc2cc1-c1ccc2c(c1)OCO2`, the IC50 amounted to 30.9 µM.

`COc1c2c(cc3oc(=O)ccc13)OCC2` gave an IC50 of 347 µM.

`O=c1oc2ccccc2cc1-c1cccc(O)c1` had a 50% inhibitory concentration (IC50) of 67.6 µM.

On to `C=C(C)[C@H]1Cc2cc3ccc(=O)oc3cc2O1`, for which the IC50 worked out at 145 µM.

As to `C=C(C)[C@@H]1Cc2c(cc(O)c3ccc(=O)oc23)O1`, the IC50 was determined as 191 µM.

Turning to `CC(=O)Oc1ccc2oc(=O)c(-c3ccc4c(c3)OCO4)cc2c1`, the IC50 was 64.6 µM.

Compound `CC(=O)Oc1ccc2oc(=O)c(-c3ccccc3)cc2c1` registered an IC50 of 123 µM.

Turning to `C=C(C)[C@H]1O[C@@H]1c1c(O)ccc2ccc(=O)oc12`, the IC50 came out at 129 µM.

The compound `CC1=C2c3c(ccc4ccc(=O)oc34)OCC2OC1=O` (centres undefined) gave an IC50 of 74.1 µM.

With `CC(=O)Oc1ccc(-c2cc3cc(OC(C)=O)ccc3oc2=O)cc1`, the half-maximal inhibitory concentration (IC50) is 52.5 µM.

`C=CC(C)(C)c1cc2ccc(O)cc2oc1=O` registered an IC50 of 162 µM.

Compound `COc1cccc(-c2cc3cc(OC(C)=O)ccc3oc2=O)c1` gave an IC50 of 85.1 µM.

The compound `O=c1oc2ccc(/N=C/c3ccc[nH]3)cc2cc1-c1ccc2c(c1)OCO2` returned an IC50 of 56.2 µM. Against the preceding compound, the IC50 is about 1.5-fold lower.

For `O=c1ccc2ccccc2o1` [2H-chromen-2-one], inhibition was half-maximal at 692 µM (IC50).

As to `O=c1oc2ccccc2cc1-c1ccc(O)cc1` [3-(4-Hydroxy-phenyl)-chromen-2-one], half-maximal inhibition (IC50) was put at 38.9 µM.

`CC(=O)Oc1ccc(-c2cc3cc(OC(C)=O)c(OC(C)=O)cc3oc2=O)cc1OC(C)=O` [6,7-diacetoxy-3-[30,40-diacetoxyphenyl]-coumarin] registered an IC50 of 17.8 µM.

With `COc1cc2ccc(=O)oc2cc1O` [7-hydroxy-6-methoxy-2H-chromen-2-one], the IC50 is 257 µM.

For `CC1(C)C=Cc2cc3ccc(=O)oc3cc2O1` [8,8-Dimethyl-8H-pyrano[3,2-g]chromen-2-one], the IC50 worked out at 195 µM. This IC50 and that of the compound before are within 1.5-fold of each other.

Consider `COc1ccc2ccc(=O)oc2c1CC=C(C)C` [osthole], for which the IC50 is 209 µM. The IC50 values of the last two compounds are within 1.5-fold of each other.

`O=c1ccc2ccc(O)cc2o1` [umbelliferone] showed an IC50 of 617 µM.

Assay in a further test: as above
The source holds these as a separate data set.
As to `C=CC(C)(C)c1cc2cc3c(cc2oc1=O)O[C@H](C(C)(C)O)C3` [Chalepin], the IC50 came out at 55 µM.

The next test can be described thus: Inhibitory concentration of compound against glyceraldehyde-3-phosphate dehydrogenase was determined.
Compound `CCOC(=O)c1cn([C@@H]2O[C@H](COC(=O)c3ccccc3)[C@@H](OC(=O)c3ccccc3)[C@H]2OC(=O)c2ccccc2)c2ccc(Cl)cc2c1=O` showed a half-maximal inhibitory concentration (IC50) of 29 µM.

`COc1ccc(-n2nc3c4ccccc4n([C@@H]4O[C@H](COC(=O)c5ccccc5)[C@@H](OC(=O)c5ccccc5)[C@H]4OC(=O)c4ccccc4)cc-3c2=O)cc1` [Adenosine analogue] yielded a concentration for half-maximal inhibition (IC50) of 45 µM. Compared with the last compound, the IC50 is about 1.6-fold higher.

Regarding `COc1cccc(C(=O)NC2C(O)[C@@H](COP(=O)([O-])OP(=O)(O)OC[C@H]3O[C@@H]([n+]4ccc(C(N)=O)cc4)C(O)C3O)O[C@H]2n2cnc3c(NCc4cccc5ccccc45)ncnc32)c1` (some centres undefined) [Adenosine analogue], half-maximal inhibition (IC50) required 0.1 µM. Compared with the last compound, the IC50 is about 450-fold lower.

Turning to `COc1cccc(C(=O)NC2C(O)[C@@H](CO)O[C@H]2n2cnc3c(NCc4cccc5ccccc45)ncnc32)c1` (stereo partly drawn) [N-((2R,5R)-4-Hydroxy-5-hydroxymethyl-2-{6-[(naphthalen-1-ylmethyl)-amino]-purin-9-yl}-tetrahydro-furan-3-yl)-3-methoxy-benzamide], the midpoint of inhibition, the IC50, lay at 12 µM.

The compound `COc1cccc(C(=O)NC2C(O)[C@@H](COP(=O)(O)O)O[C@H]2n2cnc3c(NCc4cccc5ccccc45)ncnc32)c1` (stereo partly drawn) [Phosphoric acid mono-((2R,5R)-3-hydroxy-4-(3-methoxy-benzoylamino)-5-{6-[(naphthalen-1-ylmethyl)-amino]-purin-9-yl}-tetrahydro-furan-2-ylmethyl) ester] returned an IC50 of 5 µM.
